The text below walks through data of patent US5962504A, “Substituted 2-pyrrolidinone activators of PKC” (Georgetown University, priority 1998, dated 1999).

Structures are written as SMILES.

Experiment [1] concerns the target PKC. The experiment is described as follows: ability of representative compounds to activate PKC (Ki, Table 1; procedure similar to Kozikowski et al. J. Med. Chem. 1997). In kind it is binding. As to conditions: read-out: Ki ± SEM.
Experiment [2] deals with PKC. The conditions noted are these: background statement; cited from earlier work.

Consider `CC(C)[C@H]1C(=O)N[C@H](CO)[C@@H]1c1ccccc1` [Compound 4a, (3R, 4S, 5S)-3-Isopropyl-4-phenyl-5-(hydroxymethyl)pyrrolidin-2-one], for which the Ki on PKC [1] came to 129 µM.

Consider `CCCCCCCCCc1ccc([C@@H]2[C@@H](C(C)C)C(=O)N[C@@H]2CO)cc1` [Compound 4b, (3R, 4S, 5S)-3-Isopropyl-4-(4-nonylphenyl)-5-(hydroxymethyl)-pyrrolidin-2-one], for which the Ki on PKC [1] was found to be 2.3 ± 0.2 µM.

With `CC(C)[C@H]1C(=O)N[C@H](CO)[C@@H]1c1cccc2ccccc12` [Compound 11a, (3R,4S,5S)-3-Isopropyl-4-(1-naphthyl)-5-(hydroxymethyl)pyrrolidin-2-one], the Ki on PKC [1] was 5.5 µM.

For the molecule `CCCCCC(=O)Oc1ccc([C@@H]2[C@@H](C(C)C)C(=O)N[C@@H]2CO)c2ccccc12` [Compound 11b, (3R,4S,5S)-3-Isopropyl-4-(4-hexanoyloxynaphth-1-yl)-5-(hydroxymethyl)pyrrolidin-2-one], the Ki on PKC [1] came out at 0.5 ± 0.04 µM.

For the molecule `CC1=C[C@H]2[C@@]3(O)[C@H](C)C[C@]4(OC(=O)Cc5ccccc5)[C@H]([C@@H]3C=C(CO)C[C@]2(O)C1=O)C4(C)C` [Dpp, 12-deoxyphorbol 13-phenylacetate], in the experiment on PKC [2], the “PKC activation, isozyme selectivity” value was “isozyme-selective activators of PKC”.
